Experimental data published in publication PMC6345968, “Structural basis for species-selective targeting of Hsp90 in a pathogenic fungus” (Nature Communications, 2019).
“And” between values parts separate entries of the source, which are not always exact repeats. Equal values may be shown once. Read-outs that look alike come from different tables or passages of the source.

Assays:
human Grp94 NBD = human Grp94 NBD (Homo sapiens, UniProt P14625); experiment: biochemical
Hsp90 in HEPG2 lysate = conditions: for FP signal (raw) / FP signal: HepG2 lysate; for FP signal: raw
[1] = biological target: T1, Hsp90 in C. albicans (SC5314) lysate (Candida albicans, UniProt P46598); experiment: biochemical; assay type: binding; conditions: for FP signal: raw
T1 construct: endogenous in cells; host or cells: C. albicans SC5314 whole-cell lysate
T1 sequence (P46598 whole entry): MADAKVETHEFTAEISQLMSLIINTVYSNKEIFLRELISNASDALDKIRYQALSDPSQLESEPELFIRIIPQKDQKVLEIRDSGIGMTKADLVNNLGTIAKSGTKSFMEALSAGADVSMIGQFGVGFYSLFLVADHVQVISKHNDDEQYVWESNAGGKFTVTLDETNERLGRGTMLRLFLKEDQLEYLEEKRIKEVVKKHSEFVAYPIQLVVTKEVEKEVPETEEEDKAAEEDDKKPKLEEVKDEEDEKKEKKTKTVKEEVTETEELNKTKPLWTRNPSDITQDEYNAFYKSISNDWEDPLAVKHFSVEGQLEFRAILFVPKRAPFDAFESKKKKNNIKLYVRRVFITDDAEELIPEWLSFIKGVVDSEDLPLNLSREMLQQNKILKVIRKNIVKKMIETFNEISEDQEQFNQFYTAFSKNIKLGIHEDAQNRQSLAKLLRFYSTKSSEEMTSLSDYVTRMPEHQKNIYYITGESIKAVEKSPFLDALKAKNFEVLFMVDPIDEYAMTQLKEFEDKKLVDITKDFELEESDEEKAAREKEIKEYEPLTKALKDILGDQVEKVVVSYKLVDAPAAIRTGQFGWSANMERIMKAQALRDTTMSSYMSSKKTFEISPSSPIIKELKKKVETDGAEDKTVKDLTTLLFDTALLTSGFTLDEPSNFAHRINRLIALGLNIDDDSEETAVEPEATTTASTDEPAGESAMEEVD

C. albicans Hsp90 NBD = biological target: T2, C. albicans Hsp90 NBD (Candida albicans, UniProt P46598); experiment: biochemical; assay type: binding
T2 construct: C. albicans Hsp90 (E7-K218); made in house; host or cells: E. coli Rosetta2
T2 sequence (P46598 7-218): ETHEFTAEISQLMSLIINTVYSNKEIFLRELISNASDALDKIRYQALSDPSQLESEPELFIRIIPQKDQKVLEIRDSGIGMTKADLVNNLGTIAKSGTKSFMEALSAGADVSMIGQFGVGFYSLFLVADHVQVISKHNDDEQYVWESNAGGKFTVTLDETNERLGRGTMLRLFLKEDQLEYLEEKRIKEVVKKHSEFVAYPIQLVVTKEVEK

human Hsp90 NBD = human Hsp90 NBD (Homo sapiens, UniProt P08238); experiment: biochemical
Sequence of human Hsp90 NBD (P08238 1-223): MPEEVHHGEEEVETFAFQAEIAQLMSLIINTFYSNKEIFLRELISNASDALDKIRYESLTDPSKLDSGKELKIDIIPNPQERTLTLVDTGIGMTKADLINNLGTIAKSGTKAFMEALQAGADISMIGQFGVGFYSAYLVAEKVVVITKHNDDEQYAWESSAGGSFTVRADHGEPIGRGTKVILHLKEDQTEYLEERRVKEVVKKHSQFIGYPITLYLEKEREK

Hsp90 in 3T3 lysate = experiment: FP competition in whole-cell lysate; assay type: binding, mouse; conditions: quiescent 3T3 cells, FP
Procedure: After vortexing, cell lysate was frozen at −80 °C for 2 h, followed by thawing on ice. The vortex-freeze-thaw step was repeated. […] Aliquots were thawed immediately prior to use.

[2] = I50, single experiments Expt 1-3
[3] = IC50 (Equation 16), corrected I50, single experiments, unit inferred
[4] = Inhibitor Ki, single experiments Expt 1-3
[5] = Ki, purified NBD, Cy3-GdA probe, mean (± SEM) of 3 experiments
[6] = SC5314 lysate, 0.457 nM compound
[7] = SC5314 lysate, 1.372 nM compound
[8] = SC5314 lysate, 4.115 nM compound
[9] = SC5314 lysate, 12.346 nM compound
[10] = SC5314 lysate, 37.037 nM compound
[11] = SC5314 lysate, 111.111 nM compound
[12] = SC5314 lysate, 333.333 nM compound
[13] = SC5314 lysate, 1000 nM compound
[14] = SC5314 lysate, 3000 nM compound

Sequence of human Grp94 NBD (P14625 63-337): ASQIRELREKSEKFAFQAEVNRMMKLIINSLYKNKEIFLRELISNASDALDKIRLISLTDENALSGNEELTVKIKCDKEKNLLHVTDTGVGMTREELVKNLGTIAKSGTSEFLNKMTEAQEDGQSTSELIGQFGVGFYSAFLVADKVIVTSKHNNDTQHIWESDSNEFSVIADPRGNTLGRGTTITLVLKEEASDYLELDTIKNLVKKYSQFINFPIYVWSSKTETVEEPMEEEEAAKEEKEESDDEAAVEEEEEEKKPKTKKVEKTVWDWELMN

For COc1ccc(CON=C2C=CC=CC3OC3CC(C)OC(=O)c3c(O)cc(O)cc3C2)cc1 (centres unmarked) [CMLD013075], which IC50 (human Grp94 NBD; [2]) is on record?
Its IC50 is 0.429 µM and 0.49 µM and 0.261 µM.

What about the IC50 (human Grp94 NBD; [3]) of the same compound?
Its IC50 is 0.426 µM and 0.486 µM and 0.257 µM.

What about the Ki (human Grp94 NBD; [4]) of the same compound?
Its Ki is 0.0436 µM and 0.0489 µM and 0.0264 µM.

What about the Ki (human Grp94 NBD; [5]) of the same compound?
The Ki was 0.0396 µM.

What about the “Ratio rel. GdA (HepG2)” value (Hsp90 in HEPG2 lysate; EC50 / EC50 of GdA in HepG2 lysate) of the same compound?
The value was 135.257.

And the “Ratio rel. GdA (HepG2)” value (Hsp90 in HEPG2 lysate; EC50 relative to GdA, HEPG2 lysate)?
Its value is 135.257.

What about the “FP signal, Fxn Control” value (Hsp90 in HEPG2 lysate; HEPG2 lysate, log concentration 0.137354 (1.372 nM)) of the same compound?
Its value is 0.9857.

What about the “FP signal, Fxn Control” value (Hsp90 in HEPG2 lysate; HEPG2 lysate, log concentration 0.61437 (4.115 nM)) of the same compound?
The value was 0.9905.

What about the “FP signal, Fxn Control” value (Hsp90 in HEPG2 lysate; HEPG2 lysate, log concentration 1.09153 (12.346 nM)) of the same compound?
Its value is 1.

What about the “FP signal, Fxn Control” value (Hsp90 in HEPG2 lysate; HEPG2 lysate, log concentration 1.56864 (37.037 nM)) of the same compound?
The value was 1.005.

What about the “FP signal, Fxn Control” value (Hsp90 in HEPG2 lysate; HEPG2 lysate, log concentration 2.04576 (111.111 nM)) of the same compound?
Its value is 0.9905.

And the “FP signal, Fxn Control” value (Hsp90 in HEPG2 lysate; HEPG2 lysate, log concentration 2.52288 (333.333 nM))?
Its value is 0.9762.

What about the “FP signal, Fxn Control” value (Hsp90 in HEPG2 lysate; HEPG2 lysate, log concentration 3 (1000 nM)) of the same compound?
Its value is 0.8333.

What about the “FP signal, Fxn Control” value (Hsp90 in HEPG2 lysate; HEPG2 lysate, log concentration 3.47712 (3000 nM)) of the same compound?
Its value is 0.5286.

What about the “FP signal, Fxn Control” value (Hsp90 in HEPG2 lysate; HEPG2 lysate, log concentration -0.340084 (0.457 nM)) of the same compound?
The value was 0.9857.

And the “FP signal (raw)” value (Hsp90 in HEPG2 lysate; 0.457 nM)?
The value was 207.

And the FP signal (Hsp90 in HEPG2 lysate; 0.457 nM compound)?
The FP signal was 207.

And the “FP signal (raw)” value (Hsp90 in HEPG2 lysate; 1.372 nM)?
The value was 207.

What about the FP signal (Hsp90 in HEPG2 lysate; 1.372 nM compound) of the same compound?
Its FP signal is 207.

And the “FP signal (raw)” value (Hsp90 in HEPG2 lysate; 4.115 nM)?
Its value is 208.

What about the FP signal (Hsp90 in HEPG2 lysate; 4.115 nM compound) of the same compound?
Its FP signal is 208.

What about the “FP signal (raw)” value (Hsp90 in HEPG2 lysate; 12.346 nM) of the same compound?
The value was 210.

And the FP signal (Hsp90 in HEPG2 lysate; 12.346 nM compound)?
Its FP signal is 210.

What about the “FP signal (raw)” value (Hsp90 in HEPG2 lysate; 37.037 nM) of the same compound?
The value was 211.

What about the FP signal (Hsp90 in HEPG2 lysate; 37.037 nM compound) of the same compound?
The FP signal was 211.

And the “FP signal (raw)” value (Hsp90 in HEPG2 lysate; 111.111 nM)?
The value was 208.

What about the FP signal (Hsp90 in HEPG2 lysate; 111.111 nM compound) of the same compound?
Its FP signal is 208.

What about the “FP signal (raw)” value (Hsp90 in HEPG2 lysate; 333.333 nM) of the same compound?
Its value is 205.

And the FP signal (Hsp90 in HEPG2 lysate; 333.333 nM compound)?
The FP signal was 205.

And the “FP signal (raw)” value (Hsp90 in HEPG2 lysate; 1000 nM)?
Its value is 175.

What about the FP signal (Hsp90 in HEPG2 lysate; 1000 nM compound) of the same compound?
Its FP signal is 175.

And the “FP signal (raw)” value (Hsp90 in HEPG2 lysate; 3000 nM)?
Its value is 111.

What about the FP signal (Hsp90 in HEPG2 lysate; 3000 nM compound) of the same compound?
The FP signal was 111.

And the “normalized fungal selectivity in lysates” value ([1]; C. albicans SC5314 vs HEPG2 lysate, FP)?
Its value is 4.6 fold.

What about the “relative binding affinity in fungal vs mammalian lysates” value ([1]; C. albicans vs HEPG2 and 3T3 lysates, FP) of the same compound?
Its value is “higher”.

What about the EC50 ([1]; EC50, SC5314 lysate, not normalized, oxime panel experiment 220817) of the same compound?
Its EC50 is 0.505 µM.

And the “Ratio re. GdA” value ([1]; EC50 relative to GdA, SC5314 lysate)?
Its value is 29.6649.

What about the “FP signal (raw)” value ([1]; SC5314 lysate, 0.457 nM) of the same compound?
Its value is 200.

And the “FP signal relative to 0 nM” value [1, 6]?
Its value is 0.9709.

What about the FP signal [1, 6] of the same compound?
The FP signal was 200.

And the “FP signal (raw)” value ([1]; SC5314 lysate, 1.372 nM)?
Its value is 200.

What about the “FP signal relative to 0 nM” value [1, 7] of the same compound?
Its value is 0.9709.

And the FP signal [1, 7]?
The FP signal was 200.

And the “FP signal (raw)” value ([1]; SC5314 lysate, 4.115 nM)?
The value was 199.

And the “FP signal relative to 0 nM” value [1, 8]?
Its value is 0.966.

And the FP signal [1, 8]?
Its FP signal is 199.

And the “FP signal (raw)” value ([1]; SC5314 lysate, 12.346 nM)?
Its value is 199.

What about the “FP signal relative to 0 nM” value [1, 9] of the same compound?
The value was 0.966.

What about the FP signal [1, 9] of the same compound?
The FP signal was 199.

What about the “FP signal (raw)” value ([1]; SC5314 lysate, 37.037 nM) of the same compound?
The value was 196.

What about the “FP signal relative to 0 nM” value [1, 10] of the same compound?
The value was 0.9515.

And the FP signal [1, 10]?
The FP signal was 196.

What about the “FP signal (raw)” value ([1]; SC5314 lysate, 111.111 nM) of the same compound?
The value was 182.

And the “FP signal relative to 0 nM” value [1, 11]?
The value was 0.8835.

And the FP signal [1, 11]?
Its FP signal is 182.

What about the “FP signal (raw)” value ([1]; SC5314 lysate, 333.333 nM) of the same compound?
Its value is 146.

What about the “FP signal relative to 0 nM” value [1, 12] of the same compound?
Its value is 0.7087.

And the FP signal [1, 12]?
The FP signal was 146.

What about the “FP signal (raw)” value ([1]; SC5314 lysate, 1000 nM) of the same compound?
The value was 69.

And the “FP signal relative to 0 nM” value [1, 13]?
Its value is 0.335.

What about the FP signal [1, 13] of the same compound?
Its FP signal is 69.

And the “FP signal (raw)” value ([1]; SC5314 lysate, 3000 nM)?
Its value is 40.

What about the “FP signal relative to 0 nM” value [1, 14] of the same compound?
Its value is 0.1942.

What about the FP signal [1, 14] of the same compound?
Its FP signal is 40.

And the HepG2/SC5314 ([1]; ratio of GdA-normalized EC50s, human over fungal lysate)?
Its HepG2/SC5314 is 4.5595.

What about the HepG2/SC5314 ([1]; ratio of GdA-relative EC50 ratios, HepG2 over SC5314) of the same compound?
The HepG2/SC5314 was 4.5595.

And the IC50 (C. albicans Hsp90 NBD; corrected I50, single experiments, unit inferred, read-out: IC50 (Equation 16))?
Its IC50 is 0.0773 µM and 0.0788 µM and 0.044 µM.

What about the Ki (C. albicans Hsp90 NBD; purified NBD, Cy3-GdA probe, mean (± SEM) of 3 experiments, read-out: Ki) of the same compound?
The Ki was 0.0077 µM.

What about the “selectivity for fungal Hsp90 NBD over human Grp94 NBD” value (C. albicans Hsp90 NBD; purified NBDs, FP) of the same compound?
Its value is ~ 5 fold and 5 fold.

What about the “selectivity for fungal Hsp90 NBD over human Hsp90 NBD” value (C. albicans Hsp90 NBD; purified NBDs, FP) of the same compound?
The value was ~ 28 fold and > 25 fold.

And the IC50 (C. albicans Hsp90 NBD; single experiments Expt 1-3, read-out: I50)?
The IC50 was 0.0823 µM and 0.0838 µM and 0.0478 µM.

What about the Ki (C. albicans Hsp90 NBD; single experiments Expt 1-3, read-out: Inhibitor Ki) of the same compound?
Its Ki is 8.8 nM (2×) and 5.5 nM.

And the IC50 (human Hsp90 NBD; [2])?
The IC50 was 1.65 µM and 1.63 µM and 1.25 µM.

And the IC50 (human Hsp90 NBD; [3])?
Its IC50 is 1.65 µM and 1.62 µM and 1.24 µM.

And the Ki (human Hsp90 NBD; [4])?
The Ki was 0.237 µM and 0.236 µM and 0.181 µM.

And the Ki (human Hsp90 NBD; [5])?
Its Ki is 0.218 µM.

And the “relative binding affinity in 3T3 lysate vs HEPG2 lysate” value (Hsp90 in 3T3 lysate)?
Its value is “lower in 3T3 lysate than HEPG2 lysate”.
